tested on: THP-1 cells; test: TNFα generation assay; format: cell-based, human; details: Homo sapiens, THP-1, 7 h, IFN-γ-differentiated THP-1 cells on human IgG-coated plate, cultured 7 hours; read-out: TNFα generation inhibitory activity (IC50)
Method: THP-1 cells (2×10^5 cells/ml), which were human monocytoid cells, were cultured in the presence of 10 ng/ml IFN-γ (Roche) for 2 days, so that the cells were induced to differentiate into macrophage-like cells. The differentiation-induced THP-1 cells were recovered, and the cells (1×10^6 cell/ml) were then allowed to react with a predetermined concentration of test compound at room temperature for 30 minutes. On the other hand, 100 μl of human IgG (10 μg/ml, SIGMA-ALDRICH) diluted with PBS was added to a 96-well plate, and it was then incubated at room temperature overnight. Thereafter, the resultant was washed with PBS twice to produce a human IgG-coated plate. Subsequently, a cell solution that contained a compound was inoculated on the human IgG-coated plate (5×10^4 cells/well), and it was then cultured for 7 hours. Thereafter, the cultured solution was recovered, and the amount of TNFα secreted into the culture solution was then measured by the ELISA method (Roche/R & D Systems) or the AlphaLISA method (PerkinElmer).

| IC50 [µM] | Compound |
| --- | --- |
| ≤ 0.2 | NC(=O)c1cc(F)c(N[C@@H]2CCCC[C@@H]2N)nc1Nc1ccc2nsnc2c1 (relative stereo) [Example 6-34, 6-(cis-2-aminocyclohexylamino)-2-((benzo[c][1,2,5]thiadiazol-5-yl)amino)-5-fluoronicotinamide] |
| ≤ 0.2 | NC(=O)c1cc(F)c(N[C@@H]2CCCC[C@@H]2N)nc1Nc1ccc2ncsc2c1 (relative stereo) [Example 6-35, 6-(cis-2-aminocyclohexylamino)-2-((benzo[d]thiazol-6-yl)amino)-5-fluoronicotinamide] |
| ≤ 0.2 | Cn1ncc2ccc(Nc3nc(N[C@@H]4CCCC[C@@H]4N)c(F)cc3C(N)=O)cc21 (relative stereo) [Example 6-40, 6-(cis-2-aminocyclohexylamino)-5-fluoro-2-((1-methyl-1H-indazol-6-yl)amino)nicotinamide] |
| ≤ 0.2 | Cc1nc2ccc(Nc3nc(N[C@@H]4CCCC[C@@H]4N)c(F)cc3C(N)=O)cc2o1 (relative stereo) [Example 6-43, 6-(cis-2-aminocyclohexylamino)-5-fluoro-2-((2-methylbenzo[d]oxazol-6-yl)amino)nicotinamide] |
| ≤ 0.2 | Cc1nc2cc(Nc3nc(N[C@@H]4CCCC[C@@H]4N)c(F)cc3C(N)=O)ccc2o1 (relative stereo) [Example 6-46, 6-(cis-2-aminocyclohexylamino)-5-fluoro-2-((2-methylbenzo[d]oxazol-5-yl)amino)nicotinamide] |
| ≤ 0.2 | Cn1cnc2cc(Nc3nc(N[C@@H]4CCCC[C@@H]4N)c(F)cc3C(N)=O)ccc21 (relative stereo) [Example 6-65, 6-(cis-2-aminocyclohexylamino)-5-fluoro-2-((1-methyl-1H-benzo[d]imidazol-5-yl)amino)nicotinamide] |
| ≤ 0.2 | Cc1ccc2cc(Nc3nc(N[C@@H]4CCCC[C@@H]4N)c(F)cc3C(N)=O)ccc2n1 (relative stereo) [Example 6-70, 6-(cis-2-aminocyclohexylamino)-5-fluoro-2-((2-methylquinolin-6-yl)amino)nicotinamide] |
| ≤ 0.2 | NC(=O)c1cc(F)c(N[C@@H]2CCCC[C@@H]2N)nc1Nc1ccc2cccnc2c1 (relative stereo) [Example 6-72, 6-(cis-2-aminocyclohexylamino)-5-fluoro-2-(quinolin-7-ylamino)nicotinamide] |
| ≤ 0.2 | Cn1ncc2c(Nc3nc(N[C@@H]4CCCC[C@@H]4N)c(F)cc3C(N)=O)cccc21 (relative stereo) [Example 6-75, 6-(cis-2-aminocyclohexylamino)-5-fluoro-2-((1-methyl-1H-indazol-4-yl)amino)nicotinamide] |
| ≤ 0.2 | Cc1cnc2cc(Nc3nc(N[C@@H]4CCCC[C@@H]4N)c(F)cc3C(N)=O)ccc2n1 (relative stereo) [Example 6-76, 6-(cis-2-aminocyclohexylamino)-5-fluoro-2-((2-methylquinoxalin-6-yl)amino)nicotinamide] |
| ≤ 0.2 | NC(=O)c1cc(F)c(N[C@@H]2CCCC[C@@H]2N)nc1Nc1ccc2c(cnn2CCN2CCCC2)c1 (relative stereo) [Example 6-82, 6-(cis-2-aminocyclohexylamino)-5-fluoro-2-((1-(2-(pyrrolidin-1-yl)ethyl)-1H-indazol-5-yl)amino)nicotinamide] |
| ≤ 0.2 | NC(=O)c1cc(F)c(N[C@@H]2CCCC[C@@H]2N)nc1Nc1ccc2nn(CCN3CCCC3)cc2c1 (relative stereo) [Example 6-83, 6-(cis-2-aminocyclohexylamino)-5-fluoro-2-((2-(2-(pyrrolidin-1-yl)ethyl)-2H-indazol-5-yl)amino)nicotinamide] |
| ≤ 0.2 | NC(=O)c1cc(F)c(N[C@@H]2CCCC[C@@H]2N)nc1Nc1ccc2[nH]ncc2c1 (relative stereo) [Example 6-87, 6-(cis-2-aminocyclohexylamino)-5-fluoro-2-((1H-indazol-5-yl)amino)nicotinamide] |
| ≤ 0.2 | NC(=O)c1cc(F)c(N[C@@H]2CCCC[C@@H]2N)nc1Nc1ccc2ncccc2c1 (relative stereo) [Example 8-6, 6-(cis-2-aminocyclohexylamino)-5-fluoro-2-(quinolin-6-ylamino)-nicotinamide] |
| ≤ 0.2 | NC(=O)c1cc(F)c(N[C@@H]2CCCC[C@@H]2N)nc1Nc1cccc(Cl)c1 (relative stereo) [Example 8-8, 6-(cis-2-aminocyclohexylamino)-2-((3-chlorophenyl)amino)-5-fluoro-nicotinamide] |
| ≤ 0.2 | Cc1cncc(Nc2nc(N[C@@H]3CCCC[C@@H]3N)c(Br)cc2C(N)=O)c1 (relative stereo) [Example 35-7, 6-(cis-2-aminocyclohexylamino)-5-bromo-2-((5-methylpyridin-3-yl)amino)nicotinamide] |
| ≤ 0.2 | NCCNc1nc(Nc2ccc3ncsc3c2)c(C(N)=O)cc1F [Example 6-44, 6-(2-aminoethylamino)-2-((benzo[d]thiazol-6-yl)amino)-5-fluoro-nicotinamide] |
| ≤ 0.2 | CC[C@@H](Nc1nc(Nc2ccc3ncccc3c2)c(C(N)=O)cc1F)C(N)=O [Example 12-31, 6-(((2R)-1-amino-1-oxobutan-2-yl)amino)-5-fluoro-2-(quinolin-6-ylamino)nicotinamide] |
| ≤ 0.2 | NC(=O)c1cc(F)c(NC[C@@H](N)c2ccccc2)nc1Nc1ccc2ncccc2c1 [Example 14-5, 6-(((2S)-2-amino-2-phenylethyl)amino)-5-fluoro-2-(quinolin-6-ylamino)nicotinamide] |
| ≤ 0.2 | COC[C@H](N)CNc1nc(Nc2ccc3ncccc3c2)c(C(N)=O)cc1F [Example 14-6, 6-(((2R)-2-amino-3-methoxypropyl)amino)-5-fluoro-2-(quinolin-6-ylamino)nicotinamide] |
| ≤ 0.2 | CC(C)C[C@H](N)CNc1nc(Nc2ccc3ncccc3c2)c(C(N)=O)cc1F [Example 14-10, 6-(((2S)-2-amino-4-methylpentyl)amino)-5-fluoro-2-(quinolin-6-ylamino)nicotinamide] |
| ≤ 0.2 | COc1cc(Nc2nc(N[C@@H]3CCCC[C@@H]3N)c(F)cc2C(N)=O)cc(OC)c1 [Example 22-5, 6-((1R,2S)-2-aminocyclohexylamino)-2-(3,5-dimethoxyphenylamino)-5-fluoronicotinamide] |

same assay, conditions: Homo sapiens, THP-1, 7 h, read-out: TNFα generation inhibitory activity (IC50)

| Compound | IC50 [µM] |
| --- | --- |
| NCCNc1nc(Nc2cnc3ccccc3c2)c(C(N)=O)cc1F [Example 8-11, 6-(2-aminoethylamino)-5-fluoro-2-(quinolin-3-ylamino)nicotinamide] | ≤ 0.2 |

same assay, conditions: Homo sapiens, THP-1, THP-1 cells; Table 22; read-out: IC50 in TNFα generation assay

| IC50 [µM] | Compound |
| --- | --- |
| 0.065 to 0.13 | C[C@H](N)[C@@H](C)Nc1nc(Nc2ccc3c(cnn3C)c2)c(C(N)=O)cc1F (racemic) [Example 006-109, 6-(((2R,3S)-3-aminobutan-2-yl)amino)-5-fluoro-2-((1-methyl-1H-indazol-5-yl)amino)nicotinamide 6-(((2S,3R)-3-aminobutan-2-yl)amino)-5-fluoro-2-((1-methyl-1H-indazol-5-yl)amino)nicotinamide] |
| 0.065 to 0.13 | C[C@H](N)[C@@H](C)Nc1nc(Nc2cccc(-n3nccn3)c2)c(C(N)=O)cc1F (racemic) [Example 006-111, 2-((3-(2H-1,2,3-triazol-2-yl)phenyl)amino)-6-(((2R,3S)-3-aminobutan-2-yl)amino)-5-fluoronicotinamide 2-((3-(2H-1,2,3-triazol-2-yl)phenyl)amino)-6-(((2S,3R)-3-aminobutan-2-yl)amino)-5-fluoronicotinamide] |
| 0.13 to 0.2 | Cc1nc2ccc(Nc3nc(N[C@@H]4CCCC[C@@H]4N)c(F)cc3C(N)=O)cc2o1 (relative stereo) [Example 006-043, 6-(cis-2-aminocyclohexylamino)-5-fluoro-2-((2-methylbenzo[d]oxazol-6-yl)amino)nicotinamide] |
| 0.065 to 0.13 | NC(=O)c1cc(F)c(N[C@@H]2CCCC[C@@H]2N)nc1Nc1ccnc2c1ccn2CCN1CCCC1 [Example 004-023] |
| < 0.065 | CC(C)C[C@H](CN)Nc1nc(Nc2ccc3ncccc3c2)c(C(N)=O)cc1F [Example 006-117, (R)-6-((1-amino-4-methylpentan-2-yl)amino)-5-fluoro-2-((quinolin-6-yl)amino)nicotinamide] |

same assay, conditions: THP-1 cells; Table 22; read-out: IC50 in TNFα generation assay

| IC50 [µM] | Compound |
| --- | --- |
| < 0.065 | 6-(((2R,3S)-3-aminobutan-2-yl)amino)-2- (3,5-dimethoxyphenyl)amino)-5- fluoronicotinamide 6-(((2S,3R)-3-aminobutan-2-yl)amino)-2- (3,5-dimethoxyphenyl)amino)-5- fluoronicotinamide [Example 006-107] |
| 0.065 to 0.13 | 6-(((2R,3S)-3-aminobutan-2-yl)amino)-2- ((5,6-dimethylpyridin-3-yl)amino)-5- fluoronicotinamide 6-(((2S,3R)-3-aminobutan-2-yl)amino)-2- (5,6-dimethylpyridin-3-yl)amino)-5- fluoronicotinamide [Example 006-194] |

molecular target: T1, glutathione S-transferase (GST)-fused full-length human Syk protein (Homo sapiens, UniProt P43405); test: Syk enzyme assay; format: biochemical; details: Syk enzyme assay, Test Example 1; read-out: IC50 of Syk-inhibitory activity
T1 construct: (GST)-fused full-length human Syk protein; GST (glutathione S-transferase); purchased Carna Biosciences
How it was run: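 GST-tagged full-length human Syk (baculovirus) preincubated with compound 15 min at room temperature (pH 7.0, 10 mM MgCl2), then reacted 40 min with 0.4 μM biotinylated peptide substrate and 27 μM ATP (final). Phosphorylation read by HTRF (615/665 nm) after EDTA stop; IC50 reported.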

| IC50 [µM] | Compound |
| --- | --- |
| < 0.01 | 6-(((2R,3S)-3-aminobutan-2-yl)amino)-2- (3,5-dimethoxyphenyl)amino)-5- fluoronicotinamide 6-(((2S,3R)-3-aminobutan-2-yl)amino)-2- (3,5-dimethoxyphenyl)amino)-5- fluoronicotinamide [Example 006-107] |
| 0.01 to 0.05 | 6-(((2R,3S)-3-aminobutan-2-yl)amino)-2- ((5,6-dimethylpyridin-3-yl)amino)-5- fluoronicotinamide 6-(((2S,3R)-3-aminobutan-2-yl)amino)-2- (5,6-dimethylpyridin-3-yl)amino)-5- fluoronicotinamide [Example 006-194] |
| < 0.01 | C[C@H](N)[C@@H](C)Nc1nc(Nc2ccc3c(cnn3C)c2)c(C(N)=O)cc1F (racemic) [Example 006-109, 6-(((2R,3S)-3-aminobutan-2-yl)amino)-5-fluoro-2-((1-methyl-1H-indazol-5-yl)amino)nicotinamide 6-(((2S,3R)-3-aminobutan-2-yl)amino)-5-fluoro-2-((1-methyl-1H-indazol-5-yl)amino)nicotinamide] |
| < 0.01 | C[C@H](N)[C@@H](C)Nc1nc(Nc2cccc(-n3nccn3)c2)c(C(N)=O)cc1F (racemic) [Example 006-111, 2-((3-(2H-1,2,3-triazol-2-yl)phenyl)amino)-6-(((2R,3S)-3-aminobutan-2-yl)amino)-5-fluoronicotinamide 2-((3-(2H-1,2,3-triazol-2-yl)phenyl)amino)-6-(((2S,3R)-3-aminobutan-2-yl)amino)-5-fluoronicotinamide] |
